Assay results: patent US6319952A, “Compositions and methods for reversibly increasing permeability of biomembranes” (D-Pharm Ltd., priority 1997, dated 2001)
Entries after “also recorded” stand apart in the source; their conditions may differ.

Assays:
[1] = tested on: bovine brain capillary endothelial cells in co-culture with astrocytes; experiment: Determination of lactate dehydrogenase (LDH) in the medium of endothelial cells in coculture; assay type: cell-based
Protocol: In the same experiments, lactate dehydrogenase was assayed in the medium in order to check the toxicity. This cytoplasmic enzyme is not able to cross the cellular membrane except if the membrane integrity is destroyed. An increase in the release of Lactate Dehydrogenase (LDH) indicates a breakdown of the cellular membrane, leading to a cellular death. In other words, the LDH determination in the medium allows an assessment of cell viability. […]

[2] = tested on: bovine brain capillary endothelial cells (actin filaments); experiment: Actin staining of endothelial cells (fluorescent microscopy); assay type: cell-based
Protocol: To investigate the origin of this modification of the permeability, fluorescent microscopy studies were undertaken. Actin filaments were localized with bodipy phallo?din (explanations in section 7.1.).
The medium was removed and filter-grown endothelial cells were washed gently twice with Ringer-Hepes buffer.
Filter-grown endothelial cells were fixed in 4% PAF (paraformadehyde, in PHS buffer supplemented with MgCl2, 2 mM and EGTA, 10 mM) for 15 min at 4° C.
PAF was removed and filter-grown endothelial cells were washed once with PHEMS buffer. The filter-grown endothelial cells can be stored in PHEMS buffer at 4° C.
The filter-grown endothelial cells were cut up in eight pieces in a large PHEMS buffer drop and stored in PHEMS. One piece was permeabilized with acetone at -20° C. for 1 min then stored in PHEMS buffer.
Actin filaments were localized with bodipy phallo?din (Molecular Probes, Inc.). The stain was dissolved in 1.5 ml of methanol (200 units/ml) but was used at 5 units/ml. 5 μl of stock solution was evaporated and redissolved in 200 μl of PHS buffer.
1/8 of permeabilized filter-grown endothelial cells was covered with 25 to 50 μl of stain solution, 30 min at room temperature in darkroom. The filter bearing the endothelial cells was rinsed twice with PHEMS buffer, once with water.
The filter-grown endothelial cells were mounted cell-side up on a microscope slide in mowiol. And was examined on a Leitz DMR microscope using oil immersion objectives.

[3] = tested on: bovine brain capillary endothelial cells in co-culture with astrocytes; experiment: Transcellular permeability (albumin-FITC clearance), in vitro coculture model of the BBB; assay type: cell-based; settings: 0.24 mg/ml
Protocol: 1 hr incubation with the test material and five different concentrations: 0.04; 0.08; 0.16; 0.24; 0.32 mg/ml corresponding to 0.125; 0.25; 0.5; 0.75; 1×10^-3 M, were chosen for this experiment.
Stock solution of DP-BFA was added directly to the coculture medium (upper compartment) in order to obtain a dilution of 1:40.
Permeability studies was carried out on the monolayer of endothelial cells using a transcellular tracer: albumin-FITC (fluorescein isothiocyanate), MW=66500. There is no albumin receptor on endothelial cells. Albumin crossed the monolayer by a non-specific transport.
To obtain a concentration-dependent transport parameter, the clearance principle was used like sucrose or inulin (see paragraph 2.2.).
Albumin-FITC was used on endothelial cells at the concentration of 100 μg/ml in Ringer-Hepes 0.4% albumin.
The fluorescence of each sample was determined at λexcitation of 495 and λemission of 525 using a fluorescence spectrophotometer F-2000 (Hitachi).
In that case, the results are presented as clearance (μl) in function of time (min) and clearance at 180 minutes for each condition.

[4] = tested on: bovine brain capillary endothelial cells in co-culture with astrocytes; experiment: Reversibility of DP-BFA effect on the paracellular permeability of the BBB in vitro; assay type: cell-based; settings: for permeability of the monolayer for sucrose and inulin: 1 hour incubation
Protocol: In regard with the previous results, 0.16 mg/ml (paracellular opening after 1 hr) and 0.32 mg/ml (paracellular and transcellular openings after 1 hr) were chosen to study the reversibility of the effect of DP-BFA.
Endothelial cells are cocultured 12 days, on the twelfth culture day DP-BFA was added to the cultures for 1 hour, and then removed by replacement of the culture medium. The cultures then were maintained for a further 24 hours without DP-BFA, and subsequently assayed for paracellular permeability.
Permeability studies were carried out on the monolayer of endothelial cells, using two paracellular tracers: inulin-^3 H and sucrose-^14C.

[5] = Acute intravenous toxicity test in mice; assay type: in vivo; settings: mouse, in vivo; intravenous administration to mice
Protocol: (§1) An acute intravenous toxicity test was performed to study the toxicity of the branched fatty acids in mice. The study included mortality and behavioral observations during three days. The rate of mortality is represented in the Table 5. M 3/14 caused mortality at a dose of 175 mg/kg; M3/12 at a dose of 75 mg/kg and M 3/10 at a dose of 100 mg/kg. Death was observed ten minutes after i.v. injection. In sub-lethal doses no significant behavior changes were observed.

[6] = tested on: mice; experiment: Acute intravenous toxicity test in mice; assay type: in vivo; settings: i.v.
Protocol: as §1

[7] = tested on: rats; settings: rat, in vivo
[8] = 0.16 mg/ml 1 hr, then 24 hrs without DP-BFA

CCCCCCCCCCCCCCC(CCC)C(=O)O (stereo not shown) [M 3/14, 2-propylhexadecanoic acid]
LDH release ([1]; 0.16 mg/ml, 24 hrs incubation): significant increase in LDH release
cytotoxic effect ([1]; 0.16 mg/ml, 24 hrs incubation): cytotoxic effect
LDH release ([1]; 1 hr incubation, paracellular study): no significant increase in LDH release
LDH release ([1]; 1 hr incubation, transcellular study): No increase in release of LDH
cytotoxic effect ([1]; 1 hr incubation, listed as DP-BFA): No cytotoxic effect; also recorded: not associated with cytotoxic effects
cytotoxic effect ([1]; 24 hrs reversibility study): No cytotoxic effect
LDH release ([1]; after 1 hr and after 24 hrs reversibility study): No increase in release of LDH
LDH release ([1]; reversibility kinetic study): No increase in release of LDH
cytotoxic effect ([1]; reversibility kinetic study): No cytotoxic effect
endothelial cell morphology ([2]; 0.08 mg/ml, 24 hrs): significant morphological changes
stress fibers (actin staining) ([2]; 0.08 mg/ml, 24 hrs): increase in numerous densely packed stress fibers
stress fibers (actin staining) [2, 8]: less densely packed stress fibers
endothelial cell morphology ([2]; 0.16 mg/ml, 1 hr): significant morphological changes
stress fibers (actin staining) ([2]; 0.16 mg/ml, 1 hr): increase in numerous densely packed stress fibers
interendothelial cell gaps ([2]; 0.16 mg/ml, 24 hrs): Interendothelial cell gaps in the monolayer could be seen
non-specific transcellular transport ([3]; 1 hr incubation): increase of non-specific transcellular transport
activation at 240 µg/mL ([3]; Bos taurus, 1 hour incubation, read-out: increase in permeability of the monolayer for albumin (clearance at 180 minutes)): 268%
reversibility of paracellular permeability (clearance at 45 minutes) [4, 8]: complete reversibility
permeability of the monolayer for sucrose and inulin ([4]; 0.16 mg/ml): increase in the permeability
decrease of paracellular permeability (clearance at 45 minutes) ([4]; 0.32 mg/ml 1 hr, then 24 hrs without DP-BFA): 50%
permeability of the monolayer for sucrose and inulin ([4]; 0.32 mg/ml): increase in the permeability
paracellular breakdown (opening of the tight junctions) ([4]; 0.32 mg/ml, 1 hr): paracellular breakdown (opening of the tight junctions)
reversibility of DP-BFA effect ([4]; higher concentrations): Partial reversibility
LD50 at 72 h [5]: 150 to 175 mg/kg
Mortality ([6]; 50 mg/kg, 5 mg/ml): 0/3
Mortality ([6]; 100 mg/kg, 5 mg/ml): 0/3
Mortality ([6]; 150 mg/kg, 10 mg/ml): 0/3
Mortality ([6]; 175 mg/kg, 10 mg/ml): 3/3
dose causing mortality ([6]; mice, three days): 175 mg/kg
brain edema or general edema [7]: no brain edema or general edema was observed
change of behavior [7]: No change of behavior was observed
